This assay relates to HEK293T cells carrying the ATF4 luciferase reporter. Kind of assay: ATF4-Luc assay (in vitro model of vanishing white matter disease). It is filed as cell-based. The note with it: Homo sapiens, HEK-293T; HEK293T cells with ATF4 luciferase reporter, 1 μg/mL tunicamycin, 7 hours, One Glo luminescence. The method, then:
In order to test exemplary compounds of the invention in a cellular context, a stable VWMD cell line was first constructed. The ATF4 reporter was prepared by fusing the human full-length ATF4 5′-UTR (NCBI Accession No. BC022088.2) in front of the firefly luciferase (FLuc) coding sequence lacking the initiator methionine as described in Sidrauski et al (eLife 2013). The construct was used to produce recombinant retroviruses using standard methods and the resulting viral supernatant was used to transduce HEK293T cells, which were then subsequently selected with puromycin to generate a stable cell line.
HEK293T cells carrying the ATF4 luciferase reporter were plated on polylysine coated 384-well plates (Greiner Bio-one) at 30,000 cells per well. Cells were treated the next day with 1 μg/mL tunicamycin and 200 nM of a compound of Formula (I) for 7 hours. Luminescence was measured using One Glo (Promega) as specified by the manufacturer. Cells were maintained in DMEM with L-glutamine supplemented with 10% heat-inactivated FBS (Gibco) and Antibiotic-Antimycotic solution (Gibco).
Table 2 below summarizes the EC50 data obtained using the ATF4-Luc assay for exemplary compounds of the invention.
(In general: Reporter assays use an easily measured gene product as a stand-in for the process of interest.)

For the molecule `O=C(COc1ccc(Cl)c(F)c1)NC12CC(NC(=O)C3CN(C(=O)CO)c4cc(Cl)ccc4O3)(C1)C2` (centres unmarked) [Compound 136, 6-chloro-N-{3-[2-(4-chloro-3-fluorophenoxy)acetamido]bicyclo[1.1.1]pentan-1-yl}-4-(hydroxyacetyl)-3,4-dihydro-2H-1,4-benzoxazine-2-carboxamide], the EC50 (as a rule, the concentration needed to bring the measured effect to its halfway point) was below 10 nM. In the case of `Cc1ncc(S(=O)(=O)N2CC(C(=O)NC34CC(NC(=O)COc5ccc(Cl)c(F)c5)(C3)C4)Oc3ccc(Cl)cc32)n1C` (centres unmarked) [Compound 137, 6-chloro-N-{3-[2-(4-chloro-3-fluorophenoxy)acetamido]bicyclo[1.1.1]pentan-1-yl}-4-(1,2-dimethyl-1H-imidazole-5-sulfonyl)-3,4-dihydro-2H-1,4-benzoxazine-2-carboxamide], the EC50 is above 2000 nM. For `O=C(COc1ccc(Cl)c(F)c1)NC12CC(NC(=O)C3CN(C(=O)[C@H]4C[C@@H]4F)c4cc(Cl)ccc4O3)(C1)C2` (stereo partly drawn) [Compound 138, 6-chloro-N-{3-[2-(4-chloro-3-fluorophenoxy)acetamido]bicyclo[1.1.1]pentan-1-yl}-4-[(1R,2S)-2-fluorocyclopropane-1-carbonyl]-3,4-dihydro-2H-1,4-benzoxazine-2-carboxamide], the EC50 lay in the range of 250 to 500 nM.

With `CCOCCS(=O)(=O)N1CC(C(=O)NC23CC(NC(=O)COc4ccc(Cl)c(F)c4)(C2)C3)Oc2ccc(Cl)cc21` (centres unmarked) [Compound 139, 6-chloro-N-{3-[2-(4-chloro-3-fluorophenoxy)acetamido]bicyclo[1.1.1]pentan-1-yl}-4-(2-ethoxyethanesulfonyl)-3,4-dihydro-2H-1,4-benzoxazine-2-carboxamide], the EC50 was 50 to 250 nM.

Consider `O=C(COc1ccc(Cl)c(F)c1)NC12CC(NC(=O)C3CN(C(=O)C4(F)CC4)c4cc(Cl)ccc4O3)(C1)C2` (centres unmarked) [Compound 140, 6-chloro-N-{3-[2-(4-chloro-3-fluorophenoxy)acetamido]bicyclo[1.1.1]pentan-1-yl}-4-(1-fluorocyclopropane-1-carbonyl)-3,4-dihydro-2H-1,4-benzoxazine-2-carboxamide], for which the EC50 fell in the range of 50 to 250 nM. For `O=C(COc1ccc(Cl)c(F)c1)NC12CC(NC(=O)C3CN(C(=O)CC(F)(F)C(F)(F)F)c4cc(Cl)ccc4O3)(C1)C2` (centres unmarked) [Compound 141, 6-chloro-N-{3-[2-(4-chloro-3-fluorophenoxy)acetamido]bicyclo[1.1.1]pentan-1-yl}-4-(3,3,4,4,4-pentafluorobutanoyl)-3,4-dihydro-2H-1,4-benzoxazine-2-carboxamide], the EC50 is 10 to 50 nM. `O=C(COc1ccc(Cl)c(F)c1)NC12CC(NC(=O)C3CN(C(=O)c4ccc(OC(F)(F)F)cc4)c4cc(Cl)ccc4O3)(C1)C2` (centres unmarked) [Compound 143, 6-chloro-N-{3-[2-(4-chloro-3-fluorophenoxy)acetamido]bicyclo[1.1.1]pentan-1-yl}-4-[4-(trifluoromethoxy)benzoyl]-3,4-dihydro-2H-1,4-benzoxazine-2-carboxamide]: the EC50 was in the range of 500 to 2000 nM. In the case of `Cc1ccc(C(=O)N2CC(C(=O)NC34CC(NC(=O)COc5ccc(Cl)c(F)c5)(C3)C4)Oc3ccc(Cl)cc32)o1` (centres unmarked) [Compound 145, 6-chloro-N-{3-[2-(4-chloro-3-fluorophenoxy)acetamido]bicyclo[1.1.1]pentan-1-yl}-4-(5-methylfuran-2-carbonyl)-3,4-dihydro-2H-1,4-benzoxazine-2-carboxamide], the EC50 is 50 to 250 nM. As to `COc1cccc(C(=O)N2CC(C(=O)NC34CC(NC(=O)COc5ccc(Cl)c(F)c5)(C3)C4)Oc3ccc(Cl)cc32)c1` (centres unmarked) [Compound 146, 6-chloro-N-{3-[2-(4-chloro-3-fluorophenoxy)acetamido]bicyclo[1.1.1]pentan-1-yl}-4-(3-methoxybenzoyl)-3,4-dihydro-2H-1,4-benzoxazine-2-carboxamide], the EC50 lay within 500 to 2000 nM.

Consider `O=C(COc1ccc(Cl)c(F)c1)NC12CC(NC(=O)C3CN(C(=O)c4ccc(S(=O)(=O)F)cc4)c4cc(Cl)ccc4O3)(C1)C2` (centres unmarked) [Compound 147, 4-[6-chloro-2-({3-[2-(4-chloro-3-fluorophenoxy)acetamido]bicyclo[1.1.1]pentan-1-yl}carbamoyl)-2,3-dihydro-4H-1,4-benzoxazine-4-carbonyl]benzene-1-sulfonyl fluoride], for which the EC50 was in the range of 500 to 2000 nM. In the case of `O=C(COc1ccc(Cl)c(F)c1)NC12CC(NC(=O)C3CN(C(=O)CCC(F)(F)F)c4cc(Cl)ccc4O3)(C1)C2` (centres unmarked) [Compound 148, 6-chloro-N-{3-[2-(4-chloro-3-fluorophenoxy)acetamido]bicyclo[1.1.1]pentan-1-yl}-4-(4,4,4-trifluorobutanoyl)-3,4-dihydro-2H-1,4-benzoxazine-2-carboxamide], the EC50 lay in the range of 50 to 250 nM. In the case of `O=C(COc1ccc(Cl)c(F)c1)NC12CC(NC(=O)C3CN(C(=O)C4CC4)c4cc(Cl)ccc4O3)(C1)C2` (centres unmarked) [Compound 149, 6-chloro-N-{3-[2-(4-chloro-3-fluorophenoxy)acetamido]bicyclo[1.1.1]pentan-1-yl}-4-(cyclopropanecarbonyl)-3,4-dihydro-2H-1,4-benzoxazine-2-carboxamide] it was 50 to 250 nM; in that of `COc1ccc(C(=O)N2CC(C(=O)NC34CC(NC(=O)COc5ccc(Cl)c(F)c5)(C3)C4)Oc3ccc(Cl)cc32)cc1` (centres unmarked) [Compound 150, 6-chloro-N-{3-[2-(4-chloro-3-fluorophenoxy)acetamido]bicyclo[1.1.1]pentan-1-yl}-4-(4-methoxybenzoyl)-3,4-dihydro-2H-1,4-benzoxazine-2-carboxamide], 250 to 500 nM; in that of `O=C(COc1ccc(Cl)c(F)c1)NC12CC(NC(=O)C3CN(C(=O)C4CCOCC4)c4cc(Cl)ccc4O3)(C1)C2` (centres unmarked) [Compound 151, 6-chloro-N-{3-[2-(4-chloro-3-fluorophenoxy)acetamido]bicyclo[1.1.1]pentan-1-yl}-4-(oxane-4-carbonyl)-3,4-dihydro-2H-1,4-benzoxazine-2-carboxamide], 500 to 2000 nM. In the case of `O=C(COc1ccc(Cl)c(F)c1)NC12CC(NC(=O)C3CN(C(=O)C4CCOC4)c4cc(Cl)ccc4O3)(C1)C2` (centres unmarked) [Compound 152, 6-chloro-N-{3-[2-(4-chloro-3-fluorophenoxy)acetamido]bicyclo[1.1.1]pentan-1-yl}-4-(oxolane-3-carbonyl)-3,4-dihydro-2H-1,4-benzoxazine-2-carboxamide] it was 250 to 500 nM; in that of `Cc1oncc1C(=O)N1CC(C(=O)NC23CC(NC(=O)COc4ccc(Cl)c(F)c4)(C2)C3)Oc2ccc(Cl)cc21` (centres unmarked) [Compound 153, 6-chloro-N-{3-[2-(4-chloro-3-fluorophenoxy)acetamido]bicyclo[1.1.1]pentan-1-yl}-4-(5-methyl-1,2-oxazole-4-carbonyl)-3,4-dihydro-2H-1,4-benzoxazine-2-carboxamide], 10 to 50 nM. `O=C(COc1ccc(Cl)c(F)c1)NC12CC(NC(=O)C3CN(C(=O)c4ccno4)c4cc(Cl)ccc4O3)(C1)C2` (centres unmarked) [Compound 154, 6-chloro-N-{3-[2-(4-chloro-3-fluorophenoxy)acetamido]bicyclo[1.1.1]pentan-1-yl}-4-(1,2-oxazole-5-carbonyl)-3,4-dihydro-2H-1,4-benzoxazine-2-carboxamide]: the EC50 is below 10 nM. In the case of `O=C(O)CC1c2ccccc2CCN1C(=O)NC12CC(NC(=O)COc3ccc(Cl)c(F)c3)(C1)C2` (centres unmarked) [Compound 155, [2-({3-[2-(4-chloro-3-fluorophenoxy)acetamido]bicyclo[1.1.1]pentan-1-yl}carbamoyl)-1,2,3,4-tetrahydroisoquinolin-1-yl]acetic Acid], the EC50 was above 2000 nM. Turning to `COCCOCC(=O)N1CC(C(=O)NC23CC(NC(=O)COc4ccc(Cl)c(F)c4)(C2)C3)Oc2ccc(Cl)cc21` (centres unmarked) [Compound 156, 6-chloro-N-{3-[2-(4-chloro-3-fluorophenoxy)acetamido]bicyclo[1.1.1]pentan-1-yl}-4-[(2-methoxyethoxy)acetyl]-3,4-dihydro-2H-1,4-benzoxazine-2-carboxamide], the EC50 lay within 10 to 50 nM. For `CC(=O)N1CC(C(=O)NC23CC(NC(=O)COc4ccc(Cl)c(F)c4)(C2)C3)Oc2ccc(Cl)cc21` (centres unmarked) [Compound 157, 4-acetyl-6-chloro-N-{3-[2-(4-chloro-3-fluorophenoxy)acetamido]bicyclo[1.1.1]pentan-1-yl}-3,4-dihydro-2H-1,4-benzoxazine-2-carboxamide], the EC50 was in the range of 10 to 50 nM. As to `COCC(=O)N1CC(C(=O)NC23CC(NC(=O)COc4ccc(Cl)c(F)c4)(C2)C3)Oc2ccc(Cl)cc21` (centres unmarked) [Compound 158, 6-chloro-N-{3-[2-(4-chloro-3-fluorophenoxy)acetamido]bicyclo[1.1.1]pentan-1-yl}-4-(methoxyacetyl)-3,4-dihydro-2H-1,4-benzoxazine-2-carboxamide], the EC50 was 10 to 50 nM.

As for `O=C(COc1ccc(Cl)c(F)c1)NC12CC(NC(=O)C3CN(C(=O)C(F)(F)C(F)(F)C(F)(F)F)c4cc(Cl)ccc4O3)(C1)C2` (centres unmarked) [Compound 159, 6-chloro-N-{3-[2-(4-chloro-3-fluorophenoxy)acetamido]bicyclo[1.1.1]pentan-1-yl}-4-(2,2,3,3,4,4,4-heptafluorobutanoyl)-3,4-dihydro-2H-1,4-benzoxazine-2-carboxamide], the EC50 was below 10 nM. The result for `O=C(COc1ccc(Cl)c(F)c1)NC12CC(NC(=O)C3CN(C(=O)c4cccc(C(F)(F)F)c4)c4cc(Cl)ccc4O3)(C1)C2` (centres unmarked) [Compound 160, 6-chloro-N-{3-[2-(4-chloro-3-fluorophenoxy)acetamido]bicyclo[1.1.1]pentan-1-yl}-4-[3-(trifluoromethyl)benzoyl]-3,4-dihydro-2H-1,4-benzoxazine-2-carboxamide] reads above 2000 nM.

These data come from US20210169892A1, “MODULATORS OF THE INTEGRATED STRESS PATHWAY” (Calico Life Sciences LLC, priority 2017, published 2021).
